Reference: ChEMBL document CHEMBL4613212, “Insights of synthetic analogues of anti-leprosy agents” (Bioorg Med Chem, 2019)
Converted amounts (≈) assume the structure as drawn.

Tests used:
Mycobacterium leprae [1] = experiment: Anti-leprotic activity against Mycobacterium leprae infected in CBA mouse assessed as number of Mycobacterium leprae in paw pads at 10 mg/kg administrated 5 times a week and measured 7.5 months post infection (reference value: 3.91 +/- 0.33 10^5); format: functional
Mycobacterium leprae [2] = experiment: Anti-leprotic activity against Mycobacterium leprae infected in 538 CBA mouse assessed as number of Mycobacterium leprae in paw pads at 4 mg/kg administrated via gastric tube 5 times a week and measured 7 months post infection; format: functional
Mycobacterium leprae [3] = experiment: Anti-leprotic activity against Mycobacterium leprae infected in CBA mouse assessed as number of Mycobacterium leprae in paw pads at 30 mg/kg administrated 5 times a week and measured 7.5 months post infection (reference value: 3.91 +/- 0.33 10^5); format: functional
[4] = Drug concentration in rat blood at 400 mg/kg, sc administered as single dose; format: ADME, organism-based; settings: in vivo
Mycobacterium leprae [5] = experiment: Anti-leprotic activity against Mycobacterium leprae subcultures at 4 weeks assessed as ATP level per 10^7 cells at 0.025 mg/L measured by bioluminescence assay (reference value: 462 +/- 64 pg); format: functional
Plasmodium berghei = experiment: Antimalarial activity against Plasmodium berghei infected in albino mouse assessed survival against infection at 400 mg/kg, sc administered as single dose; format: functional
[6] = Drug excretion in rat urine at 400 mg/kg, sc administered as single dose measured after 30 days; format: ADME, organism-based; settings: read-out: Drug excretion
Mycobacterium leprae [7] = experiment: Anti-leprotic activity against Mycobacterium leprae subcultures at 4 weeks assessed as [3H]thymidine uptake per 5 times 10^7 cells at 0.005 mg/L (reference value: 1.28 +/- 0.14 pmol); format: functional
Mycobacterium leprae [8] = experiment: Anti-leprotic activity against Mycobacterium leprae infected in 538 CBA mouse assessed as number of Mycobacterium leprae in paw pads at 2 mg/kg administrated via gastric tube 5 times a week and measured 7 months post infection; format: functional
Mycobacterium leprae [9] = experiment: (§1) Inhibition of PGL1 synthesis in Mycobacterium leprae infected Swiss Webster mouse macrophages assessed as decrease in [U-14C]PA incorporation at 20 uM preincubated for 4 days post infection followed by [U-14C]PA addition and measured after 7 days by liquid scintillation counter analysis relative to control; format: functional
Mycobacterium leprae [10] = experiment: Anti-leprotic activity against Mycobacterium leprae primary cultures at 4 weeks assessed as [3H]thymidine uptake per 5 times 10^7 cells at 0.005 mg/L (reference value: 0.95 +/- 0.01 pmol); format: functional
Mycobacterium leprae [11] = experiment: Anti-leprotic activity against Mycobacterium leprae subcultures at 4 weeks assessed as ATP level per 10^7 cells at 0.005 mg/L measured by bioluminescence assay (reference value: 462 +/- 64 pg); format: functional
Mycobacterium leprae [12] = experiment: Anti-leprotic activity against Mycobacterium leprae primary cultures at 4 weeks assessed as ATP level per 10^7 cells at 0.025 mg/L measured by bioluminescence assay (reference value: 314 +/- 46 pg); format: functional
Mycobacterium leprae [13] = experiment: Anti-leprotic activity against Mycobacterium leprae infected in albino mouse assessed survival against infection at 400 mg/kg, sc administered 58 days post-infection and subsequent compound dosing at 200 mg/kg at 0.5, 1 or 2 months interval; format: functional
Mycobacterium leprae [14] = experiment: Anti-leprotic activity against Mycobacterium leprae primary cultures at 4 weeks assessed as ATP level per 10^7 cells at 0.01 mg/L measured by bioluminescence assay (reference value: 314 +/- 46 pg); format: functional
[15] = tested on: Mycolicibacterium smegmatis; experiment: Antimycobacterial activity against DDS resistant Mycobacterium smegmatis ATCC 607 […]; format: functional
[16] = tested on: Mycolicibacterium smegmatis; experiment: Antimycobacterial activity against DDS sensitive Mycobacterium smegmatis ATCC 607 […]; format: functional
Mycobacterium leprae [17] = experiment: Antimicrobial activity against Mycobacterium leprae; format: functional
Mycobacterium leprae [18] = experiment: Anti-leprotic activity against Mycobacterium leprae primary cultures at 4 weeks assessed as [3H]thymidine uptake per 5 times 10^7 cells at 0.025 mg/L (reference value: 0.95 +/- 0.01 pmol); format: functional
Mycobacterium leprae [19] = experiment: Anti-leprotic activity against Mycobacterium leprae primary cultures at 4 weeks assessed as ATP level per 10^7 cells at 0.005 mg/L measured by bioluminescence assay (reference value: 314 +/- 46 pg); format: functional
Rattus norvegicus = experiment: Effect of metallo-protein haemoglobin in rat assessed as peak methemoglobin level at 400 mg/kg, sc administered as single dose; format: ADME, organism-based; settings: in vivo
Mycobacterium leprae [20] = experiment: Anti-leprotic activity against Mycobacterium leprae subcultures at 4 weeks assessed as ATP level per 10^7 cells at 0.01 mg/L measured by bioluminescence assay (reference value: 462 +/- 64 pg); format: functional
Mycobacterium leprae [21] = experiment: Anti-leprotic activity against Mycobacterium leprae subcultures at 4 weeks assessed as [3H]thymidine uptake per 5 times 10^7 cells at 0.01 mg/L (reference value: 1.28 +/- 0.14 pmol); format: functional
Mycobacterium leprae [22] = experiment: Anti-leprotic activity against Mycobacterium leprae subcultures at 4 weeks assessed as [3H]thymidine uptake per 5 times 10^7 cells at 0.025 mg/L (reference value: 1.28 +/- 0.14 pmol); format: functional
Mycobacterium leprae [23] = experiment: Anti-leprotic activity against Mycobacterium leprae primary cultures at 4 weeks assessed as [3H]thymidine uptake per 5 times 10^7 cells at 0.01 mg/L (reference value: 0.95 +/- 0.01 pmol); format: functional
Mycobacterium leprae [24] = experiment: as §1, with “2” for “20”; format: functional
Mycobacterium leprae [25] = experiment: Anti-leprotic activity against Mycobacterium leprae infected in BALB/c mouse assessed as time delay in bacterial multiplication in footpad at 0.0001 g/100g of diet administered via feed starting 60 or 75 day post infection up to 90 days by Shepard's kinetic method; format: functional
Mycobacterium leprae [26] = experiment: Anti-leprotic activity against Mycobacterium leprae infected in BALB/c mouse assessed as time delay in bacterial multiplication in footpad at 0.0087 g/100g of diet administered via feed starting 60 or 75 day post infection up to 90 days by Shepard's kinetic method; format: functional

For CCN(CC)C(=S)Sc1ncc([N+](=O)[O-])cc1C#N, the Activity (Mycobacterium leprae [1]) was 0.56 ×10⁵ No_unit, the Activity (Mycobacterium leprae [2]) was 0.042 ×10⁷ No_unit and the Activity (Mycobacterium leprae [3]) was 0.06 ×10⁵ No_unit.

For Nc1ccc(S(=O)(=O)c2ccc(N)cc2)cc1 [DAPSONE], the Drug uptake [4] was 13.8 µg/mL, the Activity (Mycobacterium leprae [5]) was 0 pg and the Survival (Plasmodium berghei) was <1 weeks. The dose excreted at 720 h [6] was 57%, the Activity (Mycobacterium leprae [7]) was 1.37 pmol and the Activity (Mycobacterium leprae [8]) was 0.025 ×10⁷ No_unit. It also gave an inhibition at 20 µM (Mycobacterium leprae [9]) of 91%, an Activity (Mycobacterium leprae [10]) of 0.98 pmol and an Activity (Mycobacterium leprae [1]) of 0.27 ×10⁵ No_unit. For the same compound, the Activity (Mycobacterium leprae [11]) was 514 pg, the Activity (Mycobacterium leprae [12]) was 0 pg and the Activity (Mycobacterium leprae [3]) was 0.22 ×10⁵ No_unit. For the same compound, the Survival (Mycobacterium leprae [13]) was 2 weeks, the Activity (Mycobacterium leprae [14]) was 307 pg and the MIC [15] was 3220 µg/mL (≈ 13000 µM). It also gave an MIC [16] of 8.1 µg/mL (≈ 32.6 µM), an MIC (Mycobacterium leprae [17]) of 15 µg/mL (≈ 60.4 µM) and an Activity (Mycobacterium leprae [18]) of 0 pmol. For the same compound, the Activity (Mycobacterium leprae [19]) was 334 pg, the Activity (Rattus norvegicus) was 3.9 g/dL and the Activity (Mycobacterium leprae [20]) was 396 pg. The Activity (Mycobacterium leprae [21]) was 0.92 pmol, the Activity (Mycobacterium leprae [22]) was 0 pmol and the Activity (Mycobacterium leprae [23]) was 0.79 pmol. The inhibition at 2 µM (Mycobacterium leprae [24]) was 92% and the Time (Mycobacterium leprae [25]) was >91 days.

With Nc1ccc(Sc2ccc(N)cc2)cc1 [4,4'-THIODIANILINE] the Time (Mycobacterium leprae [26]) was 68 days.
